In assay [1] the target is T1, Beta-3 adrenergic receptor (Homo sapiens, UniProt P13945). Put plainly: Intrinsic activity against cloned human beta3-AR was measured as fractions of the maximal response.
Target sequence in this assay (P13945 whole entry, looked up): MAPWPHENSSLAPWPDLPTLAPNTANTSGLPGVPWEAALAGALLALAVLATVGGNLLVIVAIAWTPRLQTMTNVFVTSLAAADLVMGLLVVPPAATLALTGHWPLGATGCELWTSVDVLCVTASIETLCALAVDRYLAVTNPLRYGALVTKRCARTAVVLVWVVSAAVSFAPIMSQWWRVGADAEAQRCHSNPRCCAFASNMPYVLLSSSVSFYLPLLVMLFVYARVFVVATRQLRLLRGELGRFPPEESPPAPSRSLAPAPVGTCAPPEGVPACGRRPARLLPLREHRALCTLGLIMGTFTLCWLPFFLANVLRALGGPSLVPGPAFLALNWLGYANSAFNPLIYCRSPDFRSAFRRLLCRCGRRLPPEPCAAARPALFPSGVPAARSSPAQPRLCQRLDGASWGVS
For assay [2], the target named is T1, Beta-3 adrenergic receptor. Put plainly: Agonistic activity against cloned human beta3-AR (beta-3-adrenergic receptor) in CHO cells. It is filed as functional, cell-based.
Target sequence in this assay (P13945 whole entry): as the sequence (P13945 whole entry, looked up) above
Assay [3] concerns the target T2, Beta-1 adrenergic receptor (Homo sapiens, UniProt P08588). The assay is described as follows: Agonistic activity against cloned human beta1-AR (beta-1-adrenergic receptor) in CHO cells. It counts as functional, cell-based.
Target sequence in this assay (P08588 whole entry): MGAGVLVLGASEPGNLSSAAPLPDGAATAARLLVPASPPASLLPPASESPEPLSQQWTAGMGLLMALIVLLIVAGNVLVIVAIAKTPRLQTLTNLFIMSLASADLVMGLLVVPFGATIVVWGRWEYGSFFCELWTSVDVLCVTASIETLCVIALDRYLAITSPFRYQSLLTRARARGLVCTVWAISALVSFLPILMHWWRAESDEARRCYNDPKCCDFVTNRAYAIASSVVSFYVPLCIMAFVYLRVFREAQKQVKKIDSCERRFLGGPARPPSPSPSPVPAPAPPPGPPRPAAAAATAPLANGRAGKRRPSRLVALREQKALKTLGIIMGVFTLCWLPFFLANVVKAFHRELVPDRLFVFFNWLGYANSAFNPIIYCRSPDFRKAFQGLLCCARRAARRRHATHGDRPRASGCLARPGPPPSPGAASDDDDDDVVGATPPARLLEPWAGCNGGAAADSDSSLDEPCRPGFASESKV
Assay [4] has as its target Beta-2 adrenergic receptor (Homo sapiens, UniProt P07550). The assay is described as follows: Agonistic activity against cloned human […] (beta-2-adrenergic receptor) in CHO cells. It counts as functional, cell-based.
For assay [5], the target named is T2, Beta-1 adrenergic receptor. Put plainly: Intrinsic activity against cloned human beta1-AR was measured as fractions of the maximal response.
Target sequence in this assay (P08588 whole entry, looked up): as the sequence (P08588 whole entry) above

Chain of Beta-2 adrenergic receptor (P07550 whole entry): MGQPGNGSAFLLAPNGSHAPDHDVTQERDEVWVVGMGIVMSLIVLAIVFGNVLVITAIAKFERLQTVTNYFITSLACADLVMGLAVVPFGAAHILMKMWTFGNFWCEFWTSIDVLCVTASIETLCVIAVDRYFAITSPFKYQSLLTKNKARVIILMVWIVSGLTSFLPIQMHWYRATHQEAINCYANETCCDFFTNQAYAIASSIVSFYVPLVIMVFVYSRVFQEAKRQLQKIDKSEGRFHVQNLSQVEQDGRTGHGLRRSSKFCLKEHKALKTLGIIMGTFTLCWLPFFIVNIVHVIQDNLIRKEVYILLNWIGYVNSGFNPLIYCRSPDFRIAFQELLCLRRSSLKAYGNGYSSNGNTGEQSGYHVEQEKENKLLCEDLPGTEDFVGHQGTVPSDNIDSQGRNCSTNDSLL

Take `O=S(=O)(c1ccc2oc3ccccc3c2c1)N1CCC(NC[C@H](O)COc2cccc3[nH]c(O)nc23)CC1`: the Intrinsic activity in assay [1] is 0.64.

As a reminder, the EC50 is the midpoint of the concentration-response curve. Higher therefore signals a less potent agent. In assay [2], `CCCCOc1ccc(S(=O)(=O)N2CCC(NC[C@H](O)COc3cccc4[nH]c5ccccc5c34)C2)cc1` (stereo not given in full) had an EC50 above 2000 nM.

In assay [2], `O=c1[nH]c2cccc(OC[C@@H](O)CNC3CCN(S(=O)(=O)c4cccc5nsnc45)CC3)c2[nH]1` yielded a concentration for a half-maximal effect (EC50) of 850 nM.

Regarding `CCCCOc1ccc(S(=O)(=O)N2CC(NC[C@H](O)COc3cccc4[nH]c5ccccc5c34)C2)cc1`, the EC50 in assay [2] is above 2000 nM.

Consider `COc1ccc(S(=O)(=O)N2CCC(NC[C@H](O)COc3cccc4[nH]c(=O)[nH]c34)CC2)cc1`, for which the half-maximal effective concentration (EC50) in assay [3] is above 100000 nM; in assay [2] it was 120 nM; in assay [4] it was above 100000 nM.

In the case of `CCCCCCNC(=O)Nc1ccc(S(=O)(=O)N2CCC(NC[C@H](O)COc3cccc4[nH]c(O)nc34)CC2)cc1`, the Intrinsic activity in assay [1] came out at 0.74.

Regarding `O=S(=O)(c1cccc2nsnc12)N1CCC(NC[C@H](O)COc2cccc3[nH]c(O)nc23)CC1`, the Intrinsic activity in assay [1] is 0.75.

For the compound `COc1ccc(S(=O)(=O)N2CCC(NC[C@H](O)COc3cccc4[nH]c5ccccc5c34)CC2)cc1OC`, the Intrinsic activity in assay [5] stood at 0.14; in assay [1], 1.2. The EC50 in assay [3] and in assay [4] was above 100000 nM each time.

On to `CCCCCCNC(=O)Nc1ccc(S(=O)(=O)N2CCC(NC[C@H](O)c3ccc(O)c(NS(C)(=O)=O)c3)CC2)cc1`, for which the Intrinsic activity in assay [5] came to 0.66; in assay [1], 0.82. Moreover, the concentration giving a half-maximal response (EC50) in assay [3] was 12 nM; in assay [2], 5 nM; in assay [4] it was 920 nM.

As for `COc1ccc(S(=O)(=O)N2CCC(NC[C@H](O)COc3ccc(O)cc3)CC2)cc1`, the Intrinsic activity worked out at 0.46 in assay [5] and 0.74 in assay [1]. For the same compound, the values for the EC50 in assay [3], in assay [2] and in assay [4] were 10300 nM, 55 nM and above 100000 nM, respectively.

As to `CCCCOc1ccc(S(=O)(=O)N2CC(NC[C@H](O)c3ccc(O)c(NS(C)(=O)=O)c3)C2)cc1`, the Intrinsic activity in assay [1] was 0.78. Moreover, a half-maximal response in assay [2] (EC50) required 1100 nM.

With `CCCCOc1ccc(S(=O)(=O)N2CCC(NC[C@H](O)COc3cccc4[nH]c5ccccc5c34)CC2)cc1`, the Intrinsic activity in assay [5] worked out at 0.04; in assay [1], 0.74. The EC50 in assay [3] and in assay [4] was above 100000 nM each time.

With `COc1ccc(S(=O)(=O)N2CCC(NC[C@H](O)COc3cccc4[nH]c(O)nc34)CC2)cc1`, the figures for the Intrinsic activity in assay [5] and in assay [1] were 0.32 and 0.72, respectively.

In the case of `CCCCOc1ccc(S(=O)(=O)N2CC(NC[C@H](O)c3ccc(O)cc3)C2)cc1`, the Intrinsic activity in assay [5] stood at 0.49; in assay [1], 0.82. In addition, the EC50 in assay [3] was 1600 nM; in assay [2], 30 nM; in assay [4] it was 920 nM.

In assay [1], `CCC(C)(C)c1ccc(S(=O)(=O)N2CCC(NC[C@H](O)COc3cccc4[nH]c5ccccc5c34)CC2)cc1` registered an Intrinsic activity of 1. This compound had an EC50 in assay [2] of 920 nM.

`CS(=O)(=O)Nc1cc([C@@H](O)CNC2CCN(S(=O)(=O)c3ccc4oc5ccccc5c4c3)CC2)ccc1O` came in with an Intrinsic activity in assay [1] of 0.88. In addition, in assay [2], it took 120 nM to reach a half-maximal effect (EC50).

For `COc1ccc(S(=O)(=O)N2CCC(NC[C@H](O)COc3cccc4[nH]c5ccccc5c34)CC2)cc1`, the Intrinsic activity in assay [5] stood at 0.11; in assay [1], 0.88. Also, the EC50 in assay [3] was 100000 nM; in assay [4], above 100000 nM.

`O=c1[nH]c2cccc(OC[C@@H](O)CNC3CCN(S(=O)(=O)c4ccc5oc6ccccc6c5c4)CC3)c2[nH]1`: the EC50 in assay [2] was found to be 70 nM.

`CCCCCCNC(=O)Nc1ccc(S(=O)(=O)N2CCC(NC[C@H](O)COc3ccc(O)cc3)CC2)cc1` yielded a half-maximal effective concentration (EC50) in assay [2] above 2000 nM.

With `COc1ccc(S(=O)(=O)N2CCC(NC[C@H](O)COc3cccc4[nH]c(=O)[nH]c34)CC2)cc1OC`, the figures for the EC50 in assay [3], in assay [2] and in assay [4] were above 100000 nM, 90 nM and above 100000 nM, respectively.

`CCCCCCNC(=O)Nc1ccc(S(=O)(=O)N2CCC(NC[C@H](O)COc3cccc4[nH]c(=O)[nH]c34)CC2)cc1` showed a concentration giving a half-maximal response (EC50) in assay [2] of 36 nM. This lies in the double-digit nanomolar range.

In the case of `CCCCOc1ccc(S(=O)(=O)N2CCC(NC[C@H](O)COc3ccc(O)cc3)CC2)cc1`, the concentration for a half-maximal effect (EC50) in assay [2] was above 2000 nM.

In the case of `CCCCOc1ccc(S(=O)(=O)N2CCC(NC[C@H](O)c3ccc(O)c(NS(C)(=O)=O)c3)C2)cc1` (stereo not given in full), the Intrinsic activity in assay [1] was determined as 0.79. For the same compound, a half-maximal response in assay [2] (EC50) required 360 nM.

Turning to `COc1ccc(S(=O)(=O)N2CCC(NC[C@H](O)COc3cccc4[nH]c(O)nc34)CC2)cc1OC`, the Intrinsic activity came out at 0.33 in assay [5] and 0.87 in assay [1].
